Measured values from patent publication US20120302740A1, “VINCRISTINE IMMUNOASSAY” (SALADAX BIOMEDICAL INC., priority 2010, published 2012).
Structures can show the parent of a compound that is named as a salt.

Legend:
[1] = test system: monoclonal antibody to vincristine 8B6.23.23; test: Indirect competitive microtiter plate immunoassay (ELISA), monoclonal antibody 8B6.23.23; assay type: binding, mouse; conditions: relative to vincristine, vincristine [5]-BSA coated plates
Procedure: (§1) The ELISA method for measuring vincristine concentrations was performed in polystyrene microtiter plates (Nunc MaxiSorp F8 Immunomodules) optimized for protein binding and containing 96 wells per plate. Each well was coated with vincristine [5]-BSA conjugate (prepared as in Example 5) by adding 300 μl, of vincristine [5]-BSA conjugate at 10 μg/mL in 0.05M sodium carbonate, pH 9.6, and incubating for three hours at room temperature. The wells were washed with 0.05M sodium carbonate, pH 9.6 and then were blocked with 375 μL of 5% sucrose, 0.2% sodium caseinate solution for 30 minutes at room temperature. After removal of the blocking solution the plates were dried at 37° C. overnight.
(§2) This procedure is to find the dilution of antibody or anti-serum to be tested for displacement as in Example 9. The ELISA method for screening vincristine antibodies (produced in Example 6) was performed with the microtiter plates that were sensitized with vincristine-BSA conjugate prepared in Example 7. The antibody screening assay was performed by diluting the murine serum from test bleeds (as in Example 6a) containing polyclonal vincristine antibodies to 1:2,000, 1:6,000, 1:18,000 and 1:54,000 (volume/volume) in phosphate buffered saline containing 0.1% BSA and 0.01% thimerosal. […] (volume/volume) in phosphate buffered saline containing 0.1% BSA and 0.01% thimerosal. To each well of vincristine-BSA sensitized wells (prepared in Example 7)50 μL phosphate buffered saline containing 0.1% BSA and 0.01% thimerosal and 50 μL of diluted antibody were added and incubated for 10 minutes at room temperature with shaking. During this incubation antibody binds to the vincristine-BSA conjugate passively absorbed in the wells (Example 7). The wells of the plates were washed three times with 0.02 M TRIS, 0.9% NaCl, 0.5% Tween-80 and 0.001% thimerosal, pH 7.8 to remove any unbound antibody. […] Following the incubation for color development, 50 μL of stop solution (1.5% sodium fluoride in diH2O) was added to each well to stop the color development and after 10 seconds of shaking the absorbance was determined at 650 nm (Molecular Devices Plate Reader). The amount of antibody in a well was proportional to the absorbance measured and was expressed as the dilution (titer) resulting in an absorbance of 1.5. Titers were determined by graphing antibody dilution of the antibody measured (x-axis) vs. absorbance 650 nm (y-axis) and interpolating the titer at an absorbance of 1.5. The titer which produced absorbance of 1.5 determined the concentration (dilution) of antibody used in the indirect competitive microtiter plate assay described in Example 9. […]

[2] = test system: monoclonal antibody to vincristine 1D12.10; test: Indirect competitive microtiter plate immunoassay (ELISA), monoclonal antibody 1D12.10; assay type: binding, mouse; conditions: relative to vincristine, vincristine [5]-BSA coated plates
Procedure: as §1, §2

[3] = test system: antibodies to vincristine; test: Indirect competitive microtiter plate immunoassay (ELISA), pool of antibodies to vincristine; assay type: binding, mouse; conditions: for reactivity of the antibodies of this invention (in words): summary of Tables I and II
Procedure: as §1
This procedure is to find the dilution of antibody or anti-serum to be tested for displacement as in Example 9. The ELISA method for screening vincristine antibodies (produced in Example 6) was performed with the microtiter plates that were sensitized with vincristine-BSA conjugate prepared in Example 7. The antibody screening assay was performed by diluting the murine serum from test bleeds (as in Example 6a) containing polyclonal vincristine antibodies to 1:2,000, 1:6,000, 1:18,000 and 1:54,000 (volume/volume) in phosphate buffered saline containing 0.1% BSA and 0.01% thimerosal. […] (volume/volume) in phosphate buffered saline containing 0.1% BSA and 0.01% thimerosal. To each well of vincristine-BSA sensitized wells (prepared in Example 7)50 μL phosphate buffered saline containing 0.1% BSA and 0.01% thimerosal and 50 μL of diluted antibody were added and incubated for 10 minutes at room temperature with shaking. During this incubation antibody binds to the vincristine-BSA conjugate passively absorbed in the wells (Example 7). The wells of the plates were washed three times with 0.02 M TRIS, 0.9% NaCl, 0.5% Tween-80 and 0.001% thimerosal, pH 7.8 to remove any unbound antibody. […] After an incubation of 10 minutes at room temperature with shaking, during which the goat anti-mouse antibody-HRP enzyme conjugate binds to vincristine antibodies in the wells, the plates were again washed three times to remove unbound goat anti-mouse antibody-HRP enzyme conjugate. To develop a measurable color in the wells washing was followed by the addition of 100 μL of TMB (TMB Substrate, BioFx), the substrate for HRP, to develop color during a 10 minute incubation with shaking at room temperature. Following the incubation for color development, 50 μL of stop solution (1.5% sodium fluoride in diH2O) was added to each well to stop the color development and after 10 seconds of shaking the absorbance was determined at 650 nm (Molecular Devices Plate Reader). The amount of antibody in a well was proportional to the absorbance measured and was expressed as the dilution (titer) resulting in an absorbance of 1.5. Titers were determined by graphing antibody dilution of the antibody measured (x-axis) vs. absorbance 650 nm (y-axis) and interpolating the titer at an absorbance of 1.5. The titer which produced absorbance of 1.5 determined the concentration (dilution) of antibody used in the indirect competitive microtiter plate assay described in Example 9.
Indirect Competitive Microtiter Plate Immunoassay Procedure Determining IC50 and Cross-Reactivity for Antibodies to Vincristine
The ELISA method for determining IC50 values and cross-reactivity was performed with the microtiter plates that were sensitized with vincristine [5]-BSA conjugates as described in Example 7. […]

[4] = test system: polyclonal antibodies to vincristine, bleed G2M5; test: Indirect competitive microtiter plate immunoassay (ELISA), polyclonal antiserum bleed G2M5; assay type: binding, mouse; conditions: relative to vincristine, vincristine [5]-BSA coated plates
Procedure: as §1
(§3) This procedure is to find the dilution of antibody or anti-serum to be tested for displacement as in Example 9. […] Following the incubation for color development, 50 μL of stop solution (1.5% sodium fluoride in diH2O) was added to each well to stop the color development and after 10 seconds of shaking the absorbance was determined at 650 nm (Molecular Devices Plate Reader). The amount of antibody in a well was proportional to the absorbance measured and was expressed as the dilution (titer) resulting in an absorbance of 1.5. Titers were determined by graphing antibody dilution of the antibody measured (x-axis) vs. absorbance 650 nm (y-axis) and interpolating the titer at an absorbance of 1.5. […]

[5] = test system: polyclonal antibodies to vincristine, bleed G1M4; test: Indirect competitive microtiter plate immunoassay (ELISA), polyclonal antiserum bleed G1M4; assay type: binding, mouse; conditions: relative to vincristine, vincristine [5]-BSA coated plates
Procedure: as §1, §3

[6] = test system: polyclonal antibodies to vincristine, bleed G1M1; test: Indirect competitive microtiter plate immunoassay (ELISA), polyclonal antiserum bleed G1M1; assay type: binding, mouse; conditions: relative to vincristine, vincristine [5]-BSA coated plates
Procedure: as §1, §3

[7] = test system: polyclonal antibodies to vincristine, bleed G1M3; test: Indirect competitive microtiter plate immunoassay (ELISA), polyclonal antiserum bleed G1M3; assay type: binding, mouse; conditions: relative to vincristine, vincristine [5]-BSA coated plates
Procedure: as §1, §3

[8] = test system: polyclonal antibodies to vincristine, bleed G2M1; test: Indirect competitive microtiter plate immunoassay (ELISA), polyclonal antiserum bleed G2M1; assay type: binding, mouse; conditions: relative to vincristine, vincristine [5]-BSA coated plates
Procedure: as §1, §3

[9] = cited from earlier work
[10] = single one minute intravenous injection of 1-2 mg per m^2 body surface area

Molecule | Cross-reactivity of competitive immunoassay [1] [%] | Cross-reactivity of competitive immunoassay [2] [%] | reactivity of the antibodies of this invention (in words) [3] | Cross-reactivity of competitive immunoassay [4] [%] | Cross-reactivity of competitive immunoassay [5] [%] | Cross-reactivity of competitive immunoassay [6] [%] | Cross-reactivity of competitive immunoassay [7] [%] | Cross-reactivity of competitive immunoassay [8] [%] | difference in total dose exposure (inter-/intra-patient variability) ([9]; Crom et al., 1994) | interpatient variability in clearance ([9]; Gidding et al., 1999, Groninger et al., 2002) | elimination half-life [9, 10] [h] | time to distribution into tissue [9, 10] [min] | percent cross-reactivities relative to vincristine ([3]; measured with this pool of antibodies)
CCC1=C[C@@H]2CN(C1)Cc1c([nH]c3ccccc13)[C@@](C(=O)OC)(c1cc3c(cc1OC)N(C)[C@H]1[C@@](O)(C(=O)OC)[C@H](OC(C)=O)[C@]4(CC)C=CCN5CC[C@]31[C@@H]54)C2 [Vinorelbine, vinorelbine] | 0.7 | <0.1 | substantially non-cross-reactive | – | – | – | – | – | – | – | – | – | –
[H][C@@]12C[N@@](CCc3c([nH]c4ccccc34)[C@@](C(=O)OC)(c3cc4c(cc3OC)N(C=O)[C@]3([H])[C@]45CC[N@@]4CC=C[C@@](CC)([C@@H](OC(C)=O)[C@]3(O)C(=O)OC)[C@]45[H])C1)C[C@](O)(CC)C2 [Vincristine, vincristine] | 100 | 100 | substantially selectively reactive | 100 | 100 | 100 | 100 | 100 | up to 40 fold | up to 25 fold | – | – | –
vindesine | <0.1 | <0.1 | substantially non-cross-reactive | – | – | – | – | – | – | – | – | – | –
CC[C@]1(O)C[C@H]2CN(CCc3c([nH]c4ccccc34)[C@@](C(=O)OC)(c3cc4c(cc3OC)N(C=O)[C@H]3[C@@](O)(C(=O)OC)[C@H](OC(C)=O)[C@]5(CC)C=CCN6CC[C@]43[C@@H]65)C2)C1 [Vincristine sulfate] | – | – | – | – | – | – | – | – | – | – | 19 to 155 | ≤ 10 | –
CC[C@]1(O)C[C@@H]2CN(CCc3c([nH]c4ccccc34)[C@@](C(=O)OC)(c3cc4c(cc3OC)N(C)[C@H]3[C@@](O)(C(=O)OC)[C@H](OC(C)=O)[C@]5(CC)C=CCN6CC[C@]43[C@@H]65)C2)C1 [Vinblastine, vinblastine] | 0.3 | <0.1 | substantially non-cross-reactive | <2 | <4.1 | <0.9 | <3.9 | <3.4 | – | – | – | – | less than 5%
